{
  "source": "patent US12528815B2",
  "about": "“5-amino-8-(4-pyridyl)-[1,2,4]triazolo[4,3-c]pyrimidin-3-one compounds for use against cancer” (Nxera Pharma UK Limited, priority 2020, dated 2026)",
  "key": {"[1]": {"biological_target": "T1, human adenosine A1 receptor (Homo sapiens, UniProt P30542)", "T1 construct": "expressed in transfected cells; host or cells: HEK293 cells infected with BacMam (the same paragraph also labels the preparation CHO-hA1)", "T1 sequence (P30542 1-326)": "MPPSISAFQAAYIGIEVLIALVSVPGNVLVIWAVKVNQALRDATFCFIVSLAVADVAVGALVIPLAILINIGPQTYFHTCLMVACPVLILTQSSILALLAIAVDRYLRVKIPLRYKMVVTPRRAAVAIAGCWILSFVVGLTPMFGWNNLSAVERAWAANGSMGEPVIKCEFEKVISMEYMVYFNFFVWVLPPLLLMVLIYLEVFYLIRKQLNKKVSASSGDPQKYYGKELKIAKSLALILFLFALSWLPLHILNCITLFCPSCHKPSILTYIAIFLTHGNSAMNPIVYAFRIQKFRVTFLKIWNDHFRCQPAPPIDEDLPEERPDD", "assay": "Inhibition binding assay, human adenosine A1 receptor membranes, [3H]DPCPX", "settings": "1 nM [3H]DPCPX, 25° C., 1 h; IC50 converted to Ki with Cheng-Prusoff; read-out: A1 pKi (converted)", "summary_of_the_method": "(§1)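 Membranes from BacMam-infected HEK293 cells (0.2 μg A2A, 1.4 μg A1) incubated 1 h at 25° C with test compound and 1 nM [3H]ZM241385 (A2A; 50 mM Tris-HCl pH 7.4) or [3H]DPCPX (A1; plus 100 mM NaCl, 10 mM MgCl2). Nonspecific: 1 μM CGS15943 or DPCPX. Filtration, scintillation; IC50 converted to Ki via Cheng-Prusoff.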"}, "[2]": {"biological_target": "T2, human adenosine A2A receptor (Homo sapiens, UniProt P29274)", "T2 construct": "expressed in transfected cells; host or cells: HEK293 cells infected with BacMam", "T2 sequence (P29274 whole entry)": "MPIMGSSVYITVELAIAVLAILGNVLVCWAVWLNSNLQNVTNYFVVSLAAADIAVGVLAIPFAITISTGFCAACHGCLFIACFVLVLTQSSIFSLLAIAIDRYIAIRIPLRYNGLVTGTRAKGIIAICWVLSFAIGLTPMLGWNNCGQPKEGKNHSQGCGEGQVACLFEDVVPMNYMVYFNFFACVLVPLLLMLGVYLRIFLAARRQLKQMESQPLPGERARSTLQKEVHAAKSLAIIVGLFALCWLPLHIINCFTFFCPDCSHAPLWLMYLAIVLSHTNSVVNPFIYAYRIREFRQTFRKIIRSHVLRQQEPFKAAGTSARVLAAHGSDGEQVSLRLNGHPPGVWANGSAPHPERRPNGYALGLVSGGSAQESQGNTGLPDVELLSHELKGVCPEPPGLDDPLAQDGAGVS", "assay": "Inhibition binding assay, human adenosine A2A receptor membranes, [3H]ZM241385", "settings": "1 nM [3H]ZM241385, HEK293-hA2A membranes, 25° C., 1 h; IC50 converted to Ki with Cheng-Prusoff; read-out: A2A pKi (converted)", "summary_of_the_method": "as §1"}},
  "data": [
    {"smiles": "Cc1cc(-c2c(-c3ccccc3)nc(N)n3c(=O)n(C[C@H]4COCCN4)nc23)cc(C)n1", "note": "[Example 2-76, 5-amino-8-(2,6-dimethyl-4-pyridyl)-2-[[(3S)-morpholin-3-yl]methyl]-7-phenyl-[1,2,4]triazolo[4,3-c]pyrimidin-3-one]", "values": [
      {"measurement": "Ki", "setting": "[1]", "result": 631, "unit": "nM"},
      {"measurement": "Ki", "setting": "[2]", "result": 15.8, "unit": "nM"}
    ]},
    {"smiles": "Cc1cc(-c2c(-c3ccccc3)nc(N)n3c(=O)n(Cc4ccc(O)nn4)nc23)cc(C)n1", "note": "[Example 1-37, 5-amino-8-(2,6-dimethyl-4-pyridyl)-2-[(6-hydroxypyridazin-3-yl)methyl]-7-phenyl-[1,2,4]triazolo[4,3-c]pyrimidin-3-one]", "values": [
      {"measurement": "Ki", "setting": "[1]", "result": "> 3160", "unit": "nM"},
      {"measurement": "Ki", "setting": "[2]", "result": 63.1, "unit": "nM"}
    ]},
    {"smiles": "Cc1cc(-c2c(-c3ccccc3)nc(N)n3c(=O)n(CC4CCN(C)CC4)nc23)cc(C)n1", "note": "[Example 2-78, 5-amino-8-(2,6-dimethyl-4-pyridyl)-2-[(1-methyl-4-piperidyl)methyl]-7-phenyl-[1,2,4]triazolo[4,3-c]pyrimidin-3-one]", "values": [
      {"measurement": "Ki", "setting": "[1]", "result": "> 3160", "unit": "nM"},
      {"measurement": "Ki", "setting": "[2]", "result": 200, "unit": "nM"}
    ]},
    {"smiles": "Cc1cc(-c2c(-c3ccccc3)nc(N)n3c(=O)n(CCN4CCOCC4)nc23)cc(C)n1", "note": "[Example 2-99, 5-amino-8-(2,6-dimethyl-4-pyridyl)-2-(2-morpholinoethyl)-7-phenyl-[1,2,4]triazolo[4,3-c]pyrimidin-3-one]", "values": [
      {"measurement": "Ki", "setting": "[1]", "result": 794, "unit": "nM"},
      {"measurement": "Ki", "setting": "[2]", "result": 31.6, "unit": "nM"}
    ]},
    {"smiles": "COC(=O)CCN1CCC(CCn2nc3c(-c4cc(C)nc(C)c4)c(-c4ccccc4)nc(N)n3c2=O)CC1", "note": "[Example 2-109, methyl 3-[4-[2-[5-amino-8-(2,6-dimethyl-4-pyridyl)-3-oxo-7-phenyl-[1,2,4]triazolo[4,3-c]pyrimidin-2-yl]ethyl]-1-piperidyl]propanoate]", "values": [
      {"measurement": "Ki", "setting": "[1]", "result": 398, "unit": "nM"},
      {"measurement": "Ki", "setting": "[2]", "result": 20, "unit": "nM"}
    ]},
    {"smiles": "Cc1cc(-c2c(-c3ccccc3)nc(N)n3c(=O)n(C(C)c4cccnc4)nc23)cc(C)n1", "note": "(stereo not shown) [Example 1-27, 5-amino-8-(2,6-dimethyl-4-pyridyl)-7-phenyl-2-[1-(3-pyridyl)ethyl]-[1,2,4]triazolo[4,3-c]pyrimidin-3-one]", "values": [
      {"measurement": "Ki", "setting": "[1]", "result": 251, "unit": "nM"},
      {"measurement": "Ki", "setting": "[2]", "result": 10, "unit": "nM"}
    ]},
    {"smiles": "Cc1cc(-c2c(-c3ccc(C)o3)nc(N)n3c(=O)n(CCC(F)(F)F)nc23)cc(C)n1", "note": "[Example 2-43, 5-amino-8-(2,6-dimethyl-4-pyridyl)-7-(5-methyl-2-furyl)-2-(3,3,3-trifluoropropyl)-[1,2,4]triazolo[4,3-c]pyrimidin-3-one]", "values": [
      {"measurement": "Ki", "setting": "[1]", "result": 501, "unit": "nM"},
      {"measurement": "Ki", "setting": "[2]", "result": 2, "unit": "nM"}
    ]},
    {"smiles": "Cc1cc(-c2c(-c3ccncc3)nc(N)n3c(=O)n(CCC(F)(F)F)nc23)cc(C)n1", "note": "[Example 2-38, 5-amino-8-(2,6-dimethyl-4-pyridyl)-7-(4-pyridyl)-2-(3,3,3-trifluoropropyl)-[1,2,4]triazolo[4,3-c]pyrimidin-3-one]", "values": [
      {"measurement": "Ki", "setting": "[1]", "result": "> 3980", "unit": "nM"},
      {"measurement": "Ki", "setting": "[2]", "result": 39.8, "unit": "nM"}
    ]},
    {"smiles": "[2H]c1c([2H])c([2H])c(-c2nc(N)n3c(=O)n(CCC(F)(F)F)nc3c2-c2cc(C)nc(C)c2)c([2H])c1[2H]", "note": "[Example 2-32, 5-amino-8-(2,6-dimethyl-4-pyridyl)-7-(2,3,4,5,6-pentadeuteriophenyl)-2-(3,3,3-trifluoropropyl)-[1,2,4]triazolo[4,3-c]pyrimidin-3-one]", "values": [
      {"measurement": "Ki", "setting": "[1]", "result": 398, "unit": "nM"},
      {"measurement": "Ki", "setting": "[2]", "result": 0.501, "unit": "nM"}
    ]},
    {"smiles": "Cc1cc(-c2c(-c3ccccc3)nc(N)n3c(=O)n(CC4CCCS(=O)(=O)C4)nc23)cc(C)n1", "note": "(single isomer, unassigned) [Example 2-89-iso-1, 5-amino-8-(2,6-dimethyl-4-pyridyl)-2-[(1,1-dioxothian-3-yl)methyl]-7-phenyl-[1,2,4]triazolo[4,3-c]pyrimidin-3-one]", "values": [
      {"measurement": "Ki", "setting": "[1]", "result": 398, "unit": "nM"},
      {"measurement": "Ki", "setting": "[2]", "result": 10, "unit": "nM"}
    ]},
    {"smiles": "Cc1cc(-c2c(-c3ccccc3)nc(N)n3c(=O)n(CC(CO)CO)nc23)cc(C)n1", "note": "[Example 2-24, 5-amino-8-(2,6-dimethyl-4-pyridyl)-2-[3-hydroxy-2-(hydroxymethyl)propyl]-7-phenyl-[1,2,4]triazolo[4,3-c]pyrimidin-3-one]", "values": [
      {"measurement": "Ki", "setting": "[1]", "result": 794, "unit": "nM"},
      {"measurement": "Ki", "setting": "[2]", "result": 10, "unit": "nM"}
    ]}
  ]
}
